Source: patent publication US12201640B2, “19-nor C3,3-disubstituted C21-n-pyrazolyl steroids and methods of use thereof” (Sage Therapeutics, Inc., priority 2013, dated 2025)

Test system: PTZ-treated mice
Test: Acute PTZ (pentylenetetrazol-induced seizure) assay in mice
Type: in vivo, mouse
Details: latency to tonic seizures
Method: The anticonvulsant effect of test compounds were assessed in the pentylenetetazol-induced seizure assay in mice similar to methods described in Giardina & Gasior (2009) Curr Protoc Pharmacol., Chapter 5. Male CD-1 mice were housed in groups of five under controlled conditions (temperature of 22±2° C. and 12:12 light-dark cycle, lights on at 8:00 am) and water and food were available ad libitum. The mice were housed for 1 week prior to behavioral testing, at which time they weighed 25-35 g. Pentylenetetrazol (PTZ, Sigma) was dissolved in sterile 0.9% saline at a concentration of 12 mg/mL concentration for subcutaneous administration. Test compounds were formulated and administered via oral gavage or intraperitoneal injection at a predetermined time-point (typically 30 or 60 minutes) prior to PTZ injection. All solutions were made fresh and were given in a volume of 10 ml/kg body weight.
Mice were acclimated to the test room for at least 30 min before compound administration. Mice were randomized into at least four test groups (vehicle and at least three doses of the test compound) with 10 mice per group. […] Following the drug pretreatment time the mice were injected s.c. with PTZ (120 mg/kg). Immediately following the PTZ injection, mice were individually placed into observation chambers (25×15×15 cm) and a three-channel timer was started. Each mouse was continuously observed for 30 min and the following behaviors were recorded by observers blinded to the treatments: 1) latency to clonic convulsions that persist for 3 sec and followed by an absence of righting reflex 2) latency to tonic convulsions, characterized by the rigid extension of all four limbs that exceeded a 90 degree angle with the body 3) latency to death 4) number of clonic and tonic convulsions. Data are presented as mean±S.E.M and one-way analysis of variance with Dunnett's or Bonferroni's post-hoc test was used to detect significant differences in latency and number between the vehicle and dose group. p values<0.05 were regarded as statistically significant.

SMILES | Anticonvulsive Effect Dose (minimal effective anticonvulsant dose) (IP) | Anticonvulsive Effect Dose (minimal effective anticonvulsant dose) (PO)
C[C@@]1(O)CC[C@H]2[C@H](CC[C@@H]3[C@@H]2CC[C@]2(C)[C@@H](C(=O)Cn4cccn4)CC[C@@H]32)C1 [SA-13] | B (IP) (≥3 mpk) | 
C[C@@]1(O)CC[C@H]2[C@H](CC[C@@H]3[C@@H]2CC[C@]2(C)[C@@H](C(=O)Cn4cc(C#N)cn4)CC[C@@H]32)C1 [SA-4] |  | A (PO) (<3 mpk)
